Values quoted from earlier work in patent US8440231B2, “Swellable particles for drug delivery” (STC.UNM, priority 2006, dated 2013).

## CC(=O)N[C@@H](CS)C(=O)O [NACS, N-acetylcysteine]
  soluble in water: 100 mg/mL
